Assay results: paper PMC7395068, “The evolution of strategies to minimise the risk of human drug-induced liver injury (DILI) in drug discovery and development” (Archives of Toxicology, 2020)
Where two headings read alike, the source gives them in different places.

Legend:
[1] = system: PHH; conditions: cited from earlier work
[2] = system: hLiMTs; conditions: cited from earlier work
[3] = system: hLiMTs; assay: Combined HCI (HCS) and cellular ATP 3D assay in hLiMTs; conditions: for AC50 / minimal effective concentration: Homo sapiens
Description: 3D spheroid models consisting of either primary human hepatocytes with non-parenchymal cells (hLiMT’s) or HepaRG cells (HepaRG spheroids) were assessed for size (MS), oxidative stress (OS), MMP, mitochondrial mass (MM), GSH and cellular ATP content following drug exposure. Fluorescent images are acquired using the confocal mode of an ArrayScan™ XTI HCI reader (ThermoScientific) following which cellular ATP was measured using 3D CellTiter-Glo (Promega).

[4] = system: HepaRG spheroids; assay: Combined HCI (HCS) and cellular ATP 3D assay in HepaRG spheroids; conditions: HepaRG; for AC50 / minimal effective concentration: Homo sapiens
[5] = cited from earlier work
[6] = system: HepG2 cells; conditions: In vitro Assay; ref O'Brien 2006; cited from earlier work
[7] = system: HepG2 cells; conditions: In vitro Assay; ref Persson 2013; cited from earlier work
[8] = system: human hepatocytes; conditions: In vitro Assay; ref Xu 2008; cited from earlier work
[9] = system: THLE or HepG2 cells, isolated mitochondria, BSEP; conditions: In vitro Assay; ref Aleo 2019; cited from earlier work
[10] = cited from earlier work; remark: listed apart in the source
[11] = system: isolated mouse liver mitochondria; conditions: In vitro Assay; ref Porceddu 2012; cited from earlier work
[12] = system: primary human hepatocytes, NIH3T3 fibroblasts, BSEP, CYP3A4; conditions: In vitro Assay; ref Schadt 2015; cited from earlier work
[13] = In vitro Assay, ref Proctor 2017

With `NCCCC(O)(P(=O)(O)O)P(=O)(O)O` [alendronate] as the molecule, how does the “PHH/100uM, Proctor (2017)” value ([1]; 2D PHH, ATP, IC50 threshold 100 µM, ref Proctor et al. 2017) read?
The value was “-VE”.

What about the “PHH ATP <100uM” value [1, 13] of the same molecule?
Its value is “-VE”.

What about the “hLiMTs ATP <100uM” value [2, 13] of the same molecule?
Its value is “-VE”.

And the “hLiMTs/100uM, Proctor (2017)” value ([2]; hLiMTs, ATP, IC50 threshold 100 µM, ref Proctor et al. 2017)?
The value was “-VE”.

And the AC50 ([3]; read-out: ATP endpoint AC50)?
Its AC50 is 7.71 µM.

What about the minimal effective concentration ([3]; read-out: ATP endpoint MEC) of the same molecule?
Its minimal effective concentration is 2.86 µM.

And the AC50 ([3]; read-out: HCS endpoint AC50)?
Its AC50 is 15.6 µM.

And the minimal effective concentration ([3]; read-out: HCS endpoint MEC)?
Its minimal effective concentration is 2.24 µM.

What about the “hLiMTs <10 uM All” value ([3]; hLiMTs, all endpoints, cut-off <10 uM) of the same molecule?
The value was “+ve (<10 uM)”.

And the “HepaRG <10 uM All” value ([4]; all endpoints, cut-off <10 uM)?
The value was “+ve (<10 uM)”.

What about the AC50 ([4]; read-out: ATP endpoint AC50) of the same molecule?
Its AC50 is 0.822 µM.

And the minimal effective concentration ([4]; read-out: ATP endpoint MEC)?
Its minimal effective concentration is 0.291 µM.

And the AC50 ([4]; read-out: HCS endpoint AC50)?
Its AC50 is 3.13 µM.

And the minimal effective concentration ([4]; read-out: HCS endpoint MEC)?
The minimal effective concentration was 0.58 µM.

With `C[C@@](Cc1ccc(O)c(O)c1)(NN)C(=O)O` [carbidopa] as the molecule, how does the “DILI +VE (5-8), DILI -VE (-4)” value ([5]; ref Chen 2016) read?
Its value is “-VE”.

And the DILI severity category ([5]; ref Chen 2016)?
Its DILI severity category is “Ambiguous DILI-concern”.

And the “Structural based (HCI)” value [6]?
The value was “-VE”.

And the Cluser analysis [7]?
The Cluser analysis was “-VE”.

And the “Structural based (HCI)” value [7]?
The value was “-VE”.

What about the “Structural based (HCI)” value [8] of the same molecule?
The value was “-VE”.

And the “Partition Hybrid HRM Score” value [9]?
The value was “-VE”.

What about the “Ro2 Hybrid HRM Score” value [9] of the same molecule?
Its value is “-VE”.

What about the “In vivo DILI” value ([10]; ref O'Brien 2006) of the same molecule?
The value was “-VE”.

What about the “In vivo DILI” value ([10]; ref Persson 2013) of the same molecule?
Its value is “-VE”.

And the “In vivo DILI” value ([10]; ref Xu 2008)?
Its value is “-VE”.

What does the source list for `COc1cc(N)c(Cl)cc1C(=O)NC1CCN(CCCOc2ccc(F)cc2)CC1OC` (centres unmarked) [cisapride]?
Structural based (HCI) [6]: +VE; Cluser analysis [7]: -VE; Structural based (HCI) [7]: -VE; Structural based (HCI) [8]: -VE; In vivo DILI ([10]; […]): -VE; In vivo DILI ([10]; ref O'Brien 2006): -VE; In vivo DILI ([10]; ref Persson 2013): -VE; In vivo DILI ([10]; ref Xu 2008): -VE

For `CNC(=O)Oc1ccc2c(c1)[C@]1(C)CCN(C)[C@@H]1N2C` [eserine], which “Structural based (HCI)” value [6] is on record?
Its value is “+VE (lowest HCI endpoint IC50 (or in the absence of dose–response < 100 µM) < 30 × total human plasma exposure levels (Cmax.tot))”.

And the Cluser analysis [7]?
Its Cluser analysis is “-VE”.

And the “Structural based (HCI)” value [7]?
Its value is “-VE”.

What about the “Structural based (HCI)” value [8] of the same molecule?
Its value is “-VE”.

And the “In vivo DILI” value ([10]; ref O'Brien 2006)?
The value was “-VE”.

What about the “In vivo DILI” value ([10]; ref Persson 2013) of the same molecule?
The value was “-VE”.

And the “In vivo DILI” value ([10]; ref Xu 2008)?
Its value is “-VE”.

With `CCN1C(=O)NC(c2ccccc2)C1=O` (centres unmarked) [ethotion] as the molecule, how does the “PHH ATP <100uM” value [1] read?
Its value is “-VE”.

What about the “hLiMTs ATP <100uM” value [2] of the same molecule?
Its value is “-VE”.

What does the source list for `CCOC(=O)C1=C(C)NC(C)=C(C(=O)OC)C1c1cccc(Cl)c1Cl` (centres unmarked) [felodipine]?
DILI +VE (5-8), DILI -VE (-4) ([5]; in vivo): +VE; DILI severity category ([5]; in vivo): vLess-DILI-Concern; PHH ATP <100uM [1]: -VE; hLiMTs ATP <100uM [2]: -VE; In vivo DILI ([10]; in vivo): -VE

Which results are given for `CCC1=C(C)CN(C(=O)NCCc2ccc(S(=O)(=O)NC(=O)N[C@H]3CC[C@H](C)CC3)cc2)C1=O` [glimepiride]?
DILI +VE (5-8), DILI -VE (-4) ([5]; ref Chen 2016): +VE; DILI severity category ([5]; ref Chen 2016): vLess-DILI-Concern; Structural based (HCI) [6]: -VE; Cluser analysis [7]: -VE; Structural based (HCI) [7]: -VE; Structural based (HCI) [8]: -VE; Partition Hybrid HRM Score [9]: -VE; Ro2 Hybrid HRM Score [9]: -VE; In vivo DILI ([10]; ref Aleo 2019): +VE; In vivo DILI ([10]; ref O'Brien 2006): -VE; In vivo DILI ([10]; ref Persson 2013): -VE; In vivo DILI ([10]; ref Porceddu 2012): +VE; In vivo DILI ([10]; ref Xu 2008): -VE; in vitro data EC2<=1x Cmax [11]: -VE; in vitro data EC20<=2uM [11]: +VE

What does the source list for `C[N+](C)(C)C[C@H](O)CC(=O)[O-]` [levocarnitine]?
PHH ATP <100uM [1, 13]: -VE; hLiMTs ATP <100uM [2, 13]: -VE; In vivo DILI ([10]; ref Proctor 2017): -VE

Which “DILI +VE (5-8), DILI -VE (-4)” value ([5]; in vivo) does the source give for `Cc1cnc(NC(=O)C2=C(O)c3ccccc3S(=O)(=O)N2C)s1` [meloxicam] here?
The value was “+VE”.

What about the DILI severity category ([5]; in vivo) of the same molecule?
Its DILI severity category is “vLess-DILI-Concern”.

And the “Cellular toxicity (3T3 cells)” value [12]?
The value was “-VE”.

What about the “Combined Assay” value [12] of the same molecule?
The value was “-VE”.

What about the “GSH adduct HML” value [12] of the same molecule?
The value was “-VE”.

What about the Hepatocyte cellular toxicity [12] of the same molecule?
Its Hepatocyte cellular toxicity is “-VE”.

And the “MitoTox 3T3” value [12]?
Its value is “-VE”.

What about the “TDI CYP3A4” value [12] of the same molecule?
The value was “-VE”.

And the hBSEP inhibition [12]?
The hBSEP inhibition was “-VE”.

And the “PHH ATP <100uM” value [1]?
The value was “-VE”.

And the “hLiMTs ATP <100uM” value [2]?
The value was “-VE”.

For `CO[C@@]12[C@H](COC(N)=O)C3=C(C(=O)C(C)=C(N)C3=O)N1C[C@@H]1N[C@@H]12` [mitomycin], which “PHH ATP <100uM” value [1] is on record?
Its value is “+VE (key: +VE: IC50 threshold of 100 µM)”.

For `CO[C@@H]1[C@@H](OC(N)=O)[C@@H](O)[C@H](Oc2ccc3c(O)c(NC(=O)c4ccc(O)c(CC=C(C)C)c4)c(=O)oc3c2C)OC1(C)C` [novobiocin], which “Structural based (HCI)” value [6] is on record?
The value was “-VE”.

What about the Cluser analysis [7] of the same molecule?
The Cluser analysis was “-VE”.

What about the “Structural based (HCI)” value [7] of the same molecule?
Its value is “-VE”.

What about the “Structural based (HCI)” value [8] of the same molecule?
The value was “+VE”.

And the “In vivo DILI” value ([10]; ref O'Brien 2006)?
Its value is “+VE”.

What about the “In vivo DILI” value ([10]; ref Persson 2013) of the same molecule?
Its value is “+VE”.

And the “In vivo DILI” value ([10]; ref Porceddu 2012)?
Its value is “+VE”.

And the “In vivo DILI” value ([10]; ref Xu 2008)?
Its value is “+VE”.

And the “in vitro data EC2<=1x Cmax” value [11]?
The value was “-VE”.

What about the “in vitro data EC20<=2uM” value [11] of the same molecule?
The value was “+VE”.

With `CC[N+](C)(CC)CCOC(=O)C(O)(c1ccccc1)C1CCCCC1` (centres unmarked) [oxyphenonium] as the molecule, how does the “Structural based (HCI)” value [6] read?
The value was “-VE”.

What about the Cluser analysis [7] of the same molecule?
Its Cluser analysis is “-VE”.

And the “Structural based (HCI)” value [7]?
The value was “-VE”.

What about the “Structural based (HCI)” value [8] of the same molecule?
Its value is “-VE”.

And the “In vivo DILI” value ([10]; ref O'Brien 2006)?
The value was “-VE”.

What about the “In vivo DILI” value ([10]; ref Persson 2013) of the same molecule?
The value was “-VE”.

What about the “In vivo DILI” value ([10]; ref Xu 2008) of the same molecule?
Its value is “-VE”.

Which “DILI +VE (5-8), DILI -VE (-4)” value ([5]; in vivo) does the source give for `OC(CCN1CCCC1)(c1ccccc1)C1CCCCC1` (centres unmarked) [procyclidine] here?
Its value is “-VE”.

What about the DILI severity category ([5]; in vivo) of the same molecule?
The DILI severity category was “vNo-DILI-Concern”.

What about the “PHH ATP <100uM” value [1] of the same molecule?
Its value is “+VE (key: +VE: IC50 threshold of 100 µM)”.

And the “hLiMTs ATP <100uM” value [2]?
Its value is “-VE”.

And the “In vivo DILI” value ([10]; in vivo)?
The value was “-VE”.

For `Cn1c(=O)c2[nH]cnc2n(C)c1=O` [theophylline], which “Cellular toxicity (3T3 cells)” value [12] is on record?
The value was “-VE”.

And the “Combined Assay” value [12]?
Its value is “-VE”.

And the “GSH adduct HML” value [12]?
The value was “-VE”.

What about the Hepatocyte cellular toxicity [12] of the same molecule?
Its Hepatocyte cellular toxicity is “-VE”.

What about the “MitoTox 3T3” value [12] of the same molecule?
Its value is “-VE”.

What about the “TDI CYP3A4” value [12] of the same molecule?
Its value is “-VE”.

What about the hBSEP inhibition [12] of the same molecule?
The hBSEP inhibition was “-VE”.

What about the “PHH ATP <100uM” value [1] of the same molecule?
The value was “-VE”.

And the “hLiMTs ATP <100uM” value [2]?
Its value is “-VE”.

For `CC1=C(/C=C/C(C)=C/C=C/C(C)=C/C(=O)O)C(C)(C)CCC1` [tretinoin], which “DILI +VE (5-8), DILI -VE (-4)” value ([5]; ref Chen 2016) is on record?
Its value is “-VE”.

And the DILI severity category ([5]; ref Chen 2016)?
Its DILI severity category is “Ambiguous DILI-concern”.

And the “PHH ATP <100uM” value [1, 13]?
The value was “-VE”.

And the “hLiMTs ATP <100uM” value [2, 13]?
The value was “+VE (IC50 threshold of 100 µM)”.

And the “In vivo DILI” value ([10]; ref Proctor 2017)?
Its value is “+VE”.
